{"source": "patent US5538876A", "about": "“Stabilization of carboxyl esterase” (Gist-brocades, N.V., priority 1989, dated 1996)", "key": {"[1]": {"target": "carboxyl esterase (Bacillus subtilis, UniProt Q59248)", "assay": "Inactivation of carboxyl esterase by compounds", "format": "biochemical, Bacillus subtilis Thai 1-8", "details": "reaction conditions, commercially interesting concentrations", "procedure": "The esterase as such is stable at pH=9 and T=40° C. (with and without Tween 80 (TM)) for several hours."}, "[2]": {"target": "T1, carboxyl esterase (Bacillus subtilis, UniProt Q59248)", "T1 construct": "document's preparation is from B. subtilis 1-85/pNAPT-7 (cloned Thai I-8 gene)", "T1 sequence (Q59248 1-300)": "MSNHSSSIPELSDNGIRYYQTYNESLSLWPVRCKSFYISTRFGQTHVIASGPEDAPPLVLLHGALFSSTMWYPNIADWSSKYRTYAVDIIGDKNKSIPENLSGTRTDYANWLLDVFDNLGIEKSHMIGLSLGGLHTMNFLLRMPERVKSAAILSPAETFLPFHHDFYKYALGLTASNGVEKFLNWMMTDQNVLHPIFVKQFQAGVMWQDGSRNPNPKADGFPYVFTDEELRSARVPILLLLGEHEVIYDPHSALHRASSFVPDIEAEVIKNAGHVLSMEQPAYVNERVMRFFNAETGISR", "assay": "Effect of chemical modifier on carboxyl esterase stability", "format": "biochemical", "details": "used as chemical group to modify the enzyme", "source_text": "In this respect it is to be noticed that only small and not too hydrophilic chemical groups can be used to modify the enzyme."}}}
{"smiles": "Oc1ccc2ccccc2c1", "note": "[2-naphthol]", "values": [{"measurement": "inactivation of carboxyl esterase by the compound (in words)", "setting": "[1]", "result": "inactivate the enzyme"}]}
{"smiles": "CC(C)Cc1ccc(C(C)C(=O)O)cc1", "note": "(stereo not drawn) [ibuprofen, reference compound]", "values": [{"measurement": "inactivation of carboxyl esterase by the compound (in words)", "setting": "[1]", "result": "inactivate the enzyme"}]}
{"smiles": "O=C(O)COc1ccc2ccccc2c1", "note": "[2-naphthoxy acetic acid]", "values": [{"measurement": "inactivation of carboxyl esterase by the compound (in words)", "setting": "[1]", "result": "inactivate the enzyme"}]}
{"smiles": "Oc1ccccc1", "note": "[phenol]", "values": [{"measurement": "inactivation of carboxyl esterase by the compound (in words)", "setting": "[1]", "result": "inactivate the enzyme"}]}
{"smiles": "O=Cc1ccccc1", "note": "[Benzaldehyde]", "values": [{"measurement": "effect on enzyme stability (in words)", "setting": "[2]", "result": "does not have a positive effect on enzyme stability"}]}
{"smiles": "CC(Oc1ccc(Oc2ccc(Cl)cc2Cl)cc1)C(=O)O", "note": "(stereo not drawn) [diclofop]", "values": [{"measurement": "inactivation of carboxyl esterase by the compound (in words)", "setting": "[1]", "result": "will inactivate the enzyme"}]}
